We go through 15 compounds from ChEMBL document CHEMBL3045761, “One pot synthesis of some novel coumarins containing 5-(substituted-2-hydroxybenzoyl) pyridine as a new class of antimicrobial and antituberculosis agents” (2013).

≈ marks a conversion by molar mass, not a printed value. Bounds are passed on as bounds.

Holding throughout (assay type): functional
One test concerns Salmonella typhi. Description: Antibacterial activity against Salmonella enterica subsp. enterica serovar Typhi MTCC 98 after overnight incubation by broth microdilution method. (Broth dilution looks for growth in wells or tubes with falling amounts of substance.)
For another test, the system named is Bacillus subtilis. Put plainly: Antibacterial activity against Bacillus subtilis MTCC 441 after overnight incubation by broth microdilution method.
Another test has as its system Candida albicans. Description: Antifungal activity against Candida albicans MTCC 227 after overnight incubation by broth microdilution method.
The next test relates to Aspergillus niger. Description: Antifungal activity against Aspergillus niger MTCC 282 after overnight incubation by broth microdilution method.
The subject of another test is Escherichia coli. Put plainly: Antibacterial activity against Escherichia coli MTCC 443 after overnight incubation by broth microdilution method.
The subject of the next test is Staphylococcus aureus. Put plainly: Antibacterial activity against Staphylococcus aureus MTCC 96 after overnight incubation by broth microdilution method.
Test [1] deals with Mycobacterium tuberculosis. Description: Antitubercular activity against Mycobacterium tuberculosis H37Rv after 21 days by Lowenstein-Jensen method. As to conditions: 504 h.

`COc1cccc2cc(-c3ccc(C(=O)c4ccccc4O)cn3)c(=O)oc12`: the MIC99 in the test on Salmonella typhi was 250 µg/mL (≈ 670 µM); with Bacillus subtilis, 200 µg/mL (≈ 536 µM); in the test on Candida albicans, 1000 µg/mL (≈ 2680 µM); in the test with Aspergillus niger it was more than 1000 µg/mL; in the test with Escherichia coli, 200 µg/mL (≈ 536 µM); in the test on Staphylococcus aureus, 500 µg/mL (≈ 1340 µM). Also, the MIC90 in test [1] stood at 500 µg/mL (≈ 1340 µM).

`O=C(c1ccc(-c2cc3c(ccc4ccccc43)oc2=O)nc1)c1ccccc1O`: the MIC99 in the test on Salmonella typhi worked out at 250 µg/mL (≈ 635 µM); against Bacillus subtilis, 100 µg/mL (≈ 254 µM); with Candida albicans, 250 µg/mL (≈ 635 µM); with Aspergillus niger it was 500 µg/mL (≈ 1270 µM); with Escherichia coli it was 200 µg/mL (≈ 508 µM); in the test with Staphylococcus aureus, 100 µg/mL (≈ 254 µM). The same compound displayed an MIC90 in test [1] of 250 µg/mL (≈ 635 µM).

As to `Cc1ccc(O)c(C(=O)c2ccc(-c3cc4c(ccc5ccccc54)oc3=O)nc2)c1`, the MIC99 is 250 µg/mL (≈ 614 µM) with Salmonella typhi; 100 µg/mL (≈ 245 µM) in the test on Bacillus subtilis; 500 µg/mL (≈ 1230 µM) against Candida albicans; 1000 µg/mL (≈ 2450 µM) with Aspergillus niger; 200 µg/mL (≈ 491 µM) in the test on Escherichia coli; 125 µg/mL (≈ 307 µM) in the test on Staphylococcus aureus. Besides, the MIC90 in test [1] is 1000 µg/mL (≈ 2450 µM).

For the compound `CC1(C)S[C@@H]2[C@H](NC(=O)[C@H](N)c3ccccc3)C(=O)N2[C@H]1C(=O)O` [AMPICILLIN], the MIC99 was 100 µg/mL (≈ 286 µM) in the test with Salmonella typhi, 250 µg/mL (≈ 715 µM) in the test with Bacillus subtilis, 100 µg/mL (≈ 286 µM) in the test on Escherichia coli and 250 µg/mL (≈ 715 µM) against Staphylococcus aureus.

As for NYSTATIN, the MIC99 against Candida albicans and in the test on Aspergillus niger was 100 µg/mL each time.

With `O=C(c1ccc(-c2cc3c(ccc4ccccc43)oc2=O)nc1)c1cc(Cl)ccc1O`, the MIC99 was 250 µg/mL (≈ 584 µM) against Salmonella typhi; 125 µg/mL (≈ 292 µM) against Bacillus subtilis; 1000 µg/mL (≈ 2340 µM) in the test with Candida albicans; 100 µg/mL (≈ 234 µM) against Aspergillus niger; 250 µg/mL (≈ 584 µM) in the test on Escherichia coli; 100 µg/mL (≈ 234 µM) with Staphylococcus aureus. The compound further displayed an MIC90 in test [1] of 500 µg/mL (≈ 1170 µM).

As to `Cc1ccc(O)c(C(=O)c2ccc(-c3cc4ccccc4oc3=O)nc2)c1`, the MIC99 came to 200 µg/mL (≈ 560 µM) with Salmonella typhi; 200 µg/mL (≈ 560 µM) against Bacillus subtilis; 250 µg/mL (≈ 700 µM) in the test on Candida albicans; 1000 µg/mL (≈ 2800 µM) against Aspergillus niger; 250 µg/mL (≈ 700 µM) against Escherichia coli; 100 µg/mL (≈ 280 µM) against Staphylococcus aureus. This compound had an MIC90 in test [1] of 100 µg/mL (≈ 280 µM).

Turning to `O=C(c1ccc(-c2cc3ccccc3oc2=O)nc1)c1ccccc1O`, the MIC99 in the test with Salmonella typhi turned out to be 125 µg/mL (≈ 364 µM); with Bacillus subtilis, 250 µg/mL (≈ 728 µM); against Candida albicans, 500 µg/mL (≈ 1460 µM); in the test with Aspergillus niger, 1000 µg/mL (≈ 2910 µM); in the test with Escherichia coli, 100 µg/mL (≈ 291 µM); against Staphylococcus aureus it was 200 µg/mL (≈ 583 µM). Besides, in test [1], the MIC90 came to 1000 µg/mL (≈ 2910 µM).

For the compound `COc1cccc2cc(-c3ccc(C(=O)c4cc(C)ccc4O)cn3)c(=O)oc12`, the MIC99 against Salmonella typhi stood at 100 µg/mL (≈ 258 µM); in the test with Bacillus subtilis it was 250 µg/mL (≈ 645 µM); in the test with Candida albicans, 1000 µg/mL (≈ 2580 µM); against Aspergillus niger, 500 µg/mL (≈ 1290 µM); in the test on Escherichia coli, 100 µg/mL (≈ 258 µM); against Staphylococcus aureus, 250 µg/mL (≈ 645 µM). This compound also had an MIC90 in test [1] of 62.5 µg/mL (≈ 161 µM).

With `COc1cccc2cc(-c3ccc(C(=O)c4cc(Cl)ccc4O)cn3)c(=O)oc12`, the MIC99 with Salmonella typhi is 200 µg/mL (≈ 490 µM); with Bacillus subtilis, 200 µg/mL (≈ 490 µM); in the test with Candida albicans, more than 1000 µg/mL; in the test with Aspergillus niger, more than 1000 µg/mL; with Escherichia coli, 125 µg/mL (≈ 307 µM); with Staphylococcus aureus it was 200 µg/mL (≈ 490 µM). Also, the MIC90 in test [1] was 500 µg/mL (≈ 1230 µM).

Take `O=C(c1ccc(-c2cc3cc(Br)ccc3oc2=O)nc1)c1ccccc1O`: the MIC99 against Salmonella typhi was 125 µg/mL (≈ 296 µM); in the test on Bacillus subtilis, 100 µg/mL (≈ 237 µM); against Candida albicans, 200 µg/mL (≈ 474 µM); against Aspergillus niger, more than 1000 µg/mL; against Escherichia coli, 50 µg/mL (≈ 118 µM); against Staphylococcus aureus, 200 µg/mL (≈ 474 µM). Also, in test [1], the MIC90 is 250 µg/mL (≈ 592 µM).

As for `Cc1ccc(O)c(C(=O)c2ccc(-c3cc4cc(Br)ccc4oc3=O)nc2)c1`, the MIC99 against Salmonella typhi was 100 µg/mL (≈ 229 µM); in the test on Bacillus subtilis, 500 µg/mL (≈ 1150 µM); in the test with Candida albicans, 500 µg/mL (≈ 1150 µM); against Aspergillus niger it was 500 µg/mL (≈ 1150 µM); with Escherichia coli it was 100 µg/mL (≈ 229 µM); against Staphylococcus aureus, 500 µg/mL (≈ 1150 µM). Also, the MIC90 in test [1] is 100 µg/mL (≈ 229 µM).

Consider `O=C(c1ccc(-c2cc3cc(Br)ccc3oc2=O)nc1)c1cc(Cl)ccc1O`, for which the MIC99 against Salmonella typhi is 100 µg/mL (≈ 219 µM); with Bacillus subtilis it was 100 µg/mL (≈ 219 µM); in the test on Candida albicans, 100 µg/mL (≈ 219 µM); in the test on Aspergillus niger, more than 1000 µg/mL; in the test with Escherichia coli it was 62.5 µg/mL (≈ 137 µM); in the test on Staphylococcus aureus it was 62.5 µg/mL (≈ 137 µM). In addition, the MIC90 in test [1] amounted to 1000 µg/mL (≈ 2190 µM).

Regarding `COC1=CC(=O)C[C@@H](C)[C@]12Oc1c(Cl)c(OC)cc(OC)c1C2=O` [GRISEOFULVIN], the MIC99 against Candida albicans was found to be 500 µg/mL (≈ 1420 µM); in the test on Aspergillus niger, 100 µg/mL (≈ 283 µM).

As for `O=C(c1ccc(-c2cc3ccccc3oc2=O)nc1)c1cc(Cl)ccc1O`, the MIC99 was 250 µg/mL (≈ 662 µM) in the test with Salmonella typhi; 200 µg/mL (≈ 529 µM) in the test on Bacillus subtilis; 500 µg/mL (≈ 1320 µM) with Candida albicans; more than 1000 µg/mL with Aspergillus niger; 250 µg/mL (≈ 662 µM) with Escherichia coli; 250 µg/mL (≈ 662 µM) with Staphylococcus aureus. This compound also displayed an MIC90 in test [1] of 250 µg/mL (≈ 662 µM).

For orientation: MIC99 means an inhibitory concentration at the 99% level, which refers to growth in some studies and to a panel of isolates in others. Read a high MIC99 as lower susceptibility. A word on the MIC90: it is an inhibitory concentration at the 90% level, which refers to growth in some studies and to a panel of isolates in others. Higher therefore signals lower susceptibility.
